We go through eight compounds from ChEMBL document CHEMBL4414665, “Dynamic Chirality in the Mechanism of Action of Allosteric CD36 Modulators of Macrophage-Driven Inflammation” (J Med Chem, 2019).

Molecules are shown by their SMILES. Calls of active or inactive are those of the source. The rule behind the calls is not given here.

Test [1] addresses Platelet glycoprotein 4 (Mus musculus) (UniProt Q08857). The experiment in a line: Modulation activity at CD36 in mouse RAW264.7 cells assessed as inhibition of TLR-2 agonist R-FSL-1-induced NO overproduction relative to control. To be noted: concentration not given here. Type of test: cell-based. Set-up: concentration or dose not given beside the values.
Test [2] has the same target. Description: Modulation activity at CD36 in mouse J774 cells assessed as promotion of cholesterol efflux at 100 nM pre-incubated for 17 hrs before apolipoprotein A-I addition for 4 hrs by fluorescent-labeled cholesterol kit based assay relative to control. Type of test: cell-based.
The target of test [3] is Platelet glycoprotein 4 (Rattus norvegicus) (UniProt Q07969). The experiment in a line: Displacement of photoactivated [125I]-Tyr-Bpa-Ala-hexarelin from CD36 in rat heart purified membranes.
Sequence of Platelet glycoprotein 4 (Rattus norvegicus) (Q07969 whole entry): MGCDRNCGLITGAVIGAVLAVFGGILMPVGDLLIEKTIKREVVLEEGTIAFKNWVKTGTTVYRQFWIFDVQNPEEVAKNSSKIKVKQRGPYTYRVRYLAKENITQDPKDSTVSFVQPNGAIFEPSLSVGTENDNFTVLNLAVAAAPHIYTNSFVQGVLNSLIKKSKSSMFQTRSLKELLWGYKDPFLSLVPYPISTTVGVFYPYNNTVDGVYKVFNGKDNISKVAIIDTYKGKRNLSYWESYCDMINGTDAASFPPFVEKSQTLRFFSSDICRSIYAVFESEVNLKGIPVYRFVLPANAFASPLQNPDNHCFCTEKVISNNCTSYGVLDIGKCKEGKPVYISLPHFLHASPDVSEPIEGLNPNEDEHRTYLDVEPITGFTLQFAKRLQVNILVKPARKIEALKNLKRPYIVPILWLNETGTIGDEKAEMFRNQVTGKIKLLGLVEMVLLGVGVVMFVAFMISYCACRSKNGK
Test [4] has the same target. The experiment in a line: Displacement of photoactivated [125I]-Tyr-Bpa-Ala-hexarelin from CD36 in rat heart purified membranes relative to control. The test is classed as cell membranes.

Sequence of Platelet glycoprotein 4 (Mus musculus) (Q08857 whole entry): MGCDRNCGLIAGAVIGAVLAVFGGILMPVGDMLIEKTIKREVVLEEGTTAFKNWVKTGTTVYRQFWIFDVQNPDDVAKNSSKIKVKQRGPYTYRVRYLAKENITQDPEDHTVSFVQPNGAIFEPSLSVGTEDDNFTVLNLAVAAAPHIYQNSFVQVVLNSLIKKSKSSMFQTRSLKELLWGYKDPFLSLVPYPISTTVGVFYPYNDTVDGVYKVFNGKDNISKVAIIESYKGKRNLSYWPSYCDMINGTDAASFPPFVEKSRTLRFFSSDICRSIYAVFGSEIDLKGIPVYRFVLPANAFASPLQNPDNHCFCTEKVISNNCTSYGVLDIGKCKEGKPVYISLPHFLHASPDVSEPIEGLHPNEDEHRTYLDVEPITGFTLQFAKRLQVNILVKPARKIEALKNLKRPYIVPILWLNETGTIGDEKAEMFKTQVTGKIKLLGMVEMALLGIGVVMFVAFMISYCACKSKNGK

`C=CCN1CC#CCN(NC(=O)[C@H](C)N)C(=O)N[C@@H](C)C(=O)N[C@@H](Cc2c[nH]c3ccccc23)C(=O)N[C@H](Cc2ccccc2)C(=O)N[C@H](C(N)=O)CCCC1`: in test [1], the inhibition (usually the drop in the measured response relative to a control, in per cent) is 29%. In test [2], the Activity amounted to 6%. Besides, the IC50 (in general, the concentration that inhibits the measured activity by half) in test [3] was 240 nM.
For the compound `C=CCN1CC#CC[C@H](NC(=O)[C@H](C)N)C(=O)N[C@H](Cc2c[nH]c3ccccc23)C(=O)N[C@@H](C)C(=O)N[C@@H](Cc2c[nH]c3ccccc23)C(=O)N[C@H](Cc2ccccc2)C(=O)N[C@H](C(N)=O)CCCC1`, the inhibition in test [1] is 17%. The Activity in test [2] amounted to 7%. In addition, the half-inhibitory concentration (IC50) in test [3] was 660 nM.
As to `C=CCN1CC#CCN(NC(=O)[C@H](C)NC(C)=O)C(=O)N[C@H](Cc2c[nH]c3ccccc23)C(=O)N[C@@H](C)C(=O)N[C@@H](Cc2c[nH]c3ccccc23)C(=O)N[C@H](Cc2ccccc2)C(=O)N[C@H](C(N)=O)CCCC1`, in test [1], the inhibition was 20%. In addition, the Activity in test [2] worked out at 17%. In test [3], this compound had an IC50 of 670 nM.
The like results for `C=CCN1CC#CC[C@@H](NC(=O)[C@H](C)N)C(=O)N[C@@H](C)C(=O)N[C@@H](Cc2c[nH]c3ccccc23)C(=O)N[C@H](Cc2ccccc2)C(=O)N[C@H](C(N)=O)CCCC1` were, in that order, 9%, 6% and 3320 nM.
The like results for `C=CCN1CC#CC[C@@H](NC(=O)[C@H](C)N)C(=O)N[C@H](Cc2c[nH]c3ccccc23)C(=O)N[C@@H](C)C(=O)N[C@@H](Cc2c[nH]c3ccccc23)C(=O)N[C@H](Cc2ccccc2)C(=O)N[C@H](C(N)=O)CCCC1` were, in that order, 10%, 6% and 1040 nM.
As to `C=CCN1CC#CC[C@H](NC(=O)[C@H](C)N)C(=O)N[C@@H](C)C(=O)N[C@@H](Cc2c[nH]c3ccccc23)C(=O)N[C@H](Cc2ccccc2)C(=O)N[C@H](C(N)=O)CCCC1`, in test [1], the inhibition was 16%. In addition, the Activity in test [2] worked out at 13%. Further, the half-inhibitory concentration (IC50) in test [3] was found to be 1470 nM.
`C=CCN1CC#CCN(N)C(=O)N[C@H](Cc2c[nH]c3ccccc23)C(=O)N[C@@H](C)C(=O)N[C@@H](Cc2c[nH]c3ccccc23)C(=O)N[C@H](Cc2ccccc2)C(=O)N[C@H](C(N)=O)CCCC1`: in test [1], the inhibition was 18%. In test [4], the inhibition entry is “inactive”.
`C=CCN1CC#CCN(NC(=O)[C@H](C)N)C(=O)N[C@H](Cc2c[nH]c3ccccc23)C(=O)N[C@@H](C)C(=O)N[C@@H](Cc2c[nH]c3ccccc23)C(=O)N[C@H](Cc2ccccc2)C(=O)N[C@H](C(N)=O)CCCC1`: the inhibition in test [1] is 45%. Further, the Activity in test [2] was determined as 11%. Besides, the IC50 in test [3] stood at 80 nM.
